Measurements as given in patent US10993957B2 (NuCana plc, priority 2011, dated 2021).
Where two headings read alike, the source gives them in different places.

Legend:
HeLa = assay: Cytostatic assay, HeLa cells; assay type: cell-based; settings: for CC50: Table 1, read-out: CC50 HeLa; for IC50: Table 6, read-out: IC50 HeLa
Source text: (§1) The cell lines employed were L1210/0 (a leukemia cell line), FM3A/0 (a breast cancer cell line), Cem/0 (an acute lymphoblastic leukemia cell line) and HeLa (a cervical cell line).

HeLa/TK^− = assay: Cytostatic assay, HeLa/TK^− cells; assay type: cell-based; settings: for IC50: Table 6, read-out: IC50 HeLa/TK^−
Source text: as §1

FM3A/0 = assay: Cytostatic assay, FM3A/0 cells; assay type: cell-based; settings: Mus musculus
Protocol: The samples were assayed for biological activity versus a range of tumour cell lines with data recorded in Table 1 below. […] The cell lines employed were L1210/0 (a leukemia cell line), FM3A/0 (a breast cancer cell line), Cem/0 (an acute lymphoblastic leukemia cell line) and HeLa (a cervical cell line).

L1210/0 = assay: Cytostatic assay, L1210/0 cells; assay type: cell-based, murine; settings: for IC50: read-out: IC50 L1210/0
Source text: as §1

L1210/TK^− = assay: Cytostatic assay, thymidine kinase-deficient L1210/TK^− cells; assay type: cell-based, murine; settings: for CC50: L1210, Table 1, read-out: CC50 L1210/TK^−; for IC50: Table 6, read-out: IC50 L1210/TK^−
Cem/TK^− = assay: Cytostatic assay, thymidine kinase-deficient CEM/TK^− cells; assay type: cell-based, human; settings: for IC50: Table 6, read-out: IC50 Cem/TK^−
Cem/0 = assay: Cytostatic assay, CEM/0 cells; assay type: cell-based, human; settings: for CC50: Table 1, read-out: CC50 Cem/0; for IC50: Table 6, read-out: IC50 Cem/0
Source text: as §1

L1210.Hyor = assay: Cytostatic assay, Mycoplasma hyorhinis-infected L1210 cells
Summary of the method: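 Proliferation read by Coulter counting after 48 h exposure of compound-treated L1210 cells carrying M. hyorhinis infection (60,000 cells/well, DMEM with 10% FBS, 37 °C). Values also given as percent activity retained in infected cells.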

[1] = target: Thymidine Phosphorylase purified from Escherichia coli (Escherichia coli, UniProt P07650); assay: Phosphorylase assay by in situ 19F NMR; settings: potassium phosphate buffer 300 nM, pH 7.4; after 5 min, 14 h and 72 h
Chain of Thymidine Phosphorylase purified from Escherichia coli (P07650 whole entry): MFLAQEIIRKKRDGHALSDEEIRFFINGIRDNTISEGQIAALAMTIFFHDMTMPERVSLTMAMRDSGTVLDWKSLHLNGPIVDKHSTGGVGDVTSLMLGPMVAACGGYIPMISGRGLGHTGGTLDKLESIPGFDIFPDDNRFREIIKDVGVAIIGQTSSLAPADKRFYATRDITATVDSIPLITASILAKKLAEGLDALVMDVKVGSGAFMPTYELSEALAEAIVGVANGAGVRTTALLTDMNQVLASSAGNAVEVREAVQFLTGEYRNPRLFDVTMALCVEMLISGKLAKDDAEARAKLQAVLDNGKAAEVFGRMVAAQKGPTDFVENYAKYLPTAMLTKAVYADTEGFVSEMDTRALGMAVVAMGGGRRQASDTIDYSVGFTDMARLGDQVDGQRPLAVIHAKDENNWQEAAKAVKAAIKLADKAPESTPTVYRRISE
Protocol: Two potassium phosphate buffers at pH=7.4, 200 nM solution and 300 nM solution respectively, were used as phosphate donor. Units of enzyme were defined as the amount of enzyme required to hydrolyse about 0.25 mg of inosine per min used as standard. Assays were conducted for 30 minutes.

[2] = Stability in buffer at pH 1 by 31P NMR; assay type: physicochemical; settings: 14 hours
Protocol: The stability of the prodrug CPF-373 towards hydrolysis at pH=1 was studied using in situ ^31P NMR (202 MHz). The ProTide CPF-373 (1) (2.6 mg) was dissolved in MeOD (0.1 mL) after which 0.5 mL buffer (pH=1) (prepared from equal parts of 0.2 M HCl and 0.2 M KCl) was added. Then the sample was transferred into an NMR tube, and a ^31P NMR experiment was performed at 37° C. recording the data every 12 minutes for 14 hours. Data were processed and analysed with the Bruker Topspin 2.1 program.
A chemical hydrolysis was evaluated under experimental conditions at pH 1 and pH 8 and monitored by ^31P NMR. During the assay (14 h) under acidic conditions (pH 1) only two peaks representing the two diastereoisomers were recorded.

Cem/hEnt-1 = assay: Cytostatic assay, CEM cells containing the hEnt1 transporter; assay type: cell-based
Source text: (§2) Data are mean (±SD) of at least two to four independent experiments. Table 8 identifies the phosphoramidate motif of compounds embodying the present invention, as discussed above with respect to Table 6, but with “Naph” standing for 1-naphthyl.

Cem/hEnt-0 = assay: Cytostatic assay, CEM cells lacking the hEnt1 transporter; assay type: cell-based; settings: Table 8; read-out: IC50 Cem/hEnt-0
Source text: as §2

FM3A/TK^− = assay: Cytostatic assay, FM3A/TK^− cells; assay type: cell-based; settings: Mus musculus, read-out: CC50 FM3A/TK^−
[3] = Mus musculus, L1210/0, Table 1, read-out: CC50 L1210/0

O=c1[nH]cc(F)c(=O)[nH]1 [5-FU, 5-Fluorouracil, reference compound]
CC50 (HeLa; Homo sapiens, HeLa): 540 ± 120 nM
IC50 (HeLa; Homo sapiens, HeLa): 540 ± 120 nM
IC50 (HeLa/TK^−; Homo sapiens, HeLa): 230 ± 10 nM
CC50 (FM3A/0; FM3A/0, Table 1, read-out: CC50 FM3A/0): 180 ± 20 nM
CC50 (L1210/0; [3]): 330 ± 170 nM
IC50 (L1210/0; Mus musculus, L1210/0, Table 6): 330 ± 170 nM
CC50 (L1210/TK^−; Mus musculus): 320 ± 310 nM
IC50 (L1210/TK^−; Mus musculus, L1210): 320 ± 310 nM
IC50 (Cem/TK^−; Homo sapiens, CEM-TK(-)): 12000 ± 1000 nM
CC50 (Cem/0; Homo sapiens, CCRF-CEM): 18000 ± 5000 nM
IC50 (Cem/0; Homo sapiens, CCRF-CEM): 18000 ± 5000 nM

C[C@H](NP(=O)(OC[C@H]1O[C@@H](n2cc(F)c(=O)[nH]c2=O)CC1O)Oc1ccccc1)C(=O)OCc1ccccc1 (stereo partly drawn) [CPF 381, 5-Fluoro-2′-deoxyuridine-5′-O-[phenyl(benzoxy-L-alaninyl)]phosphate]
IC50 (HeLa): 130 ± 10 nM
IC50 (HeLa/TK^−): 19000 ± 2000 nM
% Retention (L1210.Hyor; CC50 L1210 × 100 ÷ CC50 L1210/Hyor): 18%
IC50(L1210.Hyor)/IC50(L1210/0) (L1210.Hyor; Table 7): 5.8
CC50 (L1210.Hyor; read-out: CC50 L1210/Hyor, Table 2, mycoplasma positive cells): 150 nM
IC50 (L1210.Hyor; read-out: IC50 L1210.Hyor, Table 7): 150 ± 6 nM
Phosphorolysis by thymidine phosphorylase (19F NMR) [1]: did not show any evidence of phosphorolysis
Stability towards hydrolysis at pH 1 [2]: highly stable
CC50 (L1210/0; Table 2, mycoplasma negative cells, read-out: CC50 L1210): 26 nM
IC50 (L1210/0; Table 6): 28 ± 7 nM
IC50 (L1210/0; Table 7): 26 ± 8 nM
IC50 (Cem/hEnt-1; Table 8, read-out: IC50 Cem/hEnt-1): 130 ± 50 nM
IC50 (Cem/hEnt-1; in the presence of NBMPR, read-out: IC50 Cem/hEnt-1 + NBMPR): 720 nM
IC50 (Cem/hEnt-1; in the presence of dipyridamole, read-out: IC50 Cem/hEnt-1 + dipyridamole): 660 nM
IC50 (L1210/TK^−): 13000 ± 8000 nM
IC50 (Cem/TK^−): 22000 ± 7000 nM
IC50 (Cem/hEnt-0): 1400 ± 650 nM
IC50 (Cem/0): 180 ± 30 nM

CCOC(=O)[C@H](C)NP(=O)(OC[C@H]1O[C@@H](n2cc(F)c(=O)[nH]c2=O)CC1O)Oc1ccccc1 (stereo partly shown) [CPF 383]
CC50 (HeLa; Homo sapiens, HeLa): 480 ± 190 nM
IC50 (HeLa; Homo sapiens, HeLa): 480 ± 190 nM
CC50 (HeLa/TK^−; Homo sapiens, HeLa, Table 1, read-out: CC50 HeLa/TK^−): 9800 ± 1400 nM
IC50 (HeLa/TK^−; Homo sapiens, HeLa): 9800 ± 1400 nM
IC50 (L1210.Hyor; Mus musculus, L1210, read-out: IC50 L1210.Hyor): 540 ± 120 nM
IC50(L1210.Hyor)/IC50(L1210/0) (L1210.Hyor; Table 7): 5
CC50 (FM3A/0; FM3A/0, read-out: CC50 FM3A/0): 640 ± 570 nM
CC50 (L1210/0; [3]): 130 ± 40 nM
IC50 (L1210/0; Mus musculus, L1210/0, Table 6): 130 ± 40 nM
IC50 (L1210/0; Mus musculus, L1210/0, Table 7): 110 ± 2.1 nM
CC50 (L1210/TK^−; Mus musculus): 940 ± 180 nM
IC50 (L1210/TK^−; Mus musculus, L1210): 940 ± 180 nM
CC50 (Cem/TK^−; Homo sapiens, CEM-TK(-), Table 1, read-out: CC50 Cem/TK^−): 14000 nM
IC50 (Cem/TK^−; Homo sapiens, CEM-TK(-)): 14000 nM
CC50 (Cem/0; Homo sapiens, CCRF-CEM): 920 ± 110 nM
IC50 (Cem/0; Homo sapiens, CCRF-CEM): 920 ± 110 nM
CC50 (FM3A/TK^−): 4100 ± 2000 nM
